The source of these data is ChEMBL document CHEMBL1145872, “Synthesis and in vitro efficacy of acid-sensitive poly(ethylene glycol) paclitaxel conjugates” (Bioorg Med Chem Lett, 2003).

Holding throughout (assay type): functional, cell-based
The test system of one experiment is MCF7. Briefly: In vitro inhibitory concentration of compound against human cancer MACL MCF-7 cell line was determined.
Another experiment has as its system MEXF514. Briefly: In vitro inhibitory concentration of compound against human cancer MEXF 514 cell line was determined.
The next experiment has as its system RXF 944. Briefly: In vitro inhibitory concentration of compound against human cancer RXF 944 cell line was determined.

By IC50 is commonly meant the concentration that inhibits the measured activity by half.

On to `CC(=O)O[C@H]1C(=O)[C@@]2(C)C([C@H](OC(=O)c3ccccc3)C3(O)C[C@H](OC(=O)[C@H](OC(=O)c4ccc(C(C)=O)cc4)[C@@H](NC(=O)c4ccccc4)c4ccccc4)C(C)=C1C3(C)C)[C@]1(OC(C)=O)COC1C[C@@H]2O` (stereo not given in full), for which the concentration for half-maximal inhibition (IC50) in the experiment on MCF7 was found to be 130 nM; in the experiment with MEXF514, 220 nM; in the experiment with RXF 944 it was 90 nM.

As for `CC(=O)O[C@H]1C(=O)[C@@]2(C)[C@H]([C@H](OC(=O)c3ccccc3)[C@]3(O)C[C@H](OC(=O)[C@H](O)[C@@H](NC(=O)c4ccccc4)c4ccccc4)C(C)=C1C3(C)C)[C@]1(OC(C)=O)CO[C@@H]1C[C@@H]2O` [PACLITAXEL], the IC50 in the experiment on MEXF514 came out at 1030 nM; in the experiment on RXF 944, 50 nM.
